In general, AC50 refers to the concentration at which the activity in the assay is half-maximal.

One assay relates to FoxO3a. In words: FoxO3a inhibition assay (GFP-FoxO3a nuclear to cytoplasmic translocation) in U2OS GFP-FoxO3a H212R reporter cells. The format is cell-based. The note with it: Homo sapiens, 0.5 h, serum starved overnight, 30 minutes compound treatment, ratio of nuclear to cytosolic GFP intensity, AC50 = concentration that results in 50% activation or inhibition, read-out: FoxO AC50. The method, then:
(§1) Phosphorylation of Akt on S473 and FoxO3a nuclear to cytoplasmic translocation were used as readouts of PI3K/Akt/mTOR pathway activation downstream of growth factor signaling.
(§2) Reporter cell line. U2OS GFP-FoxO3a H212R reporter cell line was established by transducing U2OS cells with the retroviral plasmid pLEGFP-C1 containing FoxO3a H212R transgene and selecting for G418 resistant clones.
(§3) Reporter assay. U2OS GFP-FoxO3a H212R cells were plated in 384-well plates at 4000 cells per well in 30 microliters of McCoy's 5A medium containing 10% FBS. On day 1 the cells were washed with serum free medium and serum starved overnight. On day 2 the cells were treated with different doses of the compounds for 30 minutes, fixed with 4% Paraformaldehyde for 1 hour and stained with Phospho-AKT (Ser473) antibody (Cell Signaling Technology, catalog #4060) overnight at 4° C. After nuclei staining with Hoechst 33342 (Life Technologies, catalog # H3570) the plates were imaged with InCell 2000 (GE Healthcare Bio-Sciences). FoxO3a inhibition activity is calculated as the ratio of nuclear to cytosolic GFP intensity in percent. Akt activation is measured as the total cellular intensity of Phospho-Akt antibody staining in percent. DMSO control is set as 0% activity.

A further assay relates to Akt. Kind of assay: Akt activation assay (Phospho-AKT (Ser473) antibody staining) in U2OS GFP-FoxO3a H212R reporter cells. The format is cell-based. The note with it: Homo sapiens, 0.5 h, serum starved overnight, 30 minutes compound treatment, total cellular intensity of Phospho-Akt (Ser473) antibody staining, AC50 = concentration that results in 50% activation or inhibition. The method, then: as §1, §2, §3

Take `Cc1nc(C(N)=O)nn1-c1ccc(Cc2ccc(-c3ccc(CN4CCCC4)cc3)cc2)cc1` [Example 15-4]: the results for the AC50 with FoxO3a and in the assay with Akt were 33 nM and 99 nM, respectively.

As for `Cc1nc(C(N)=O)nn1-c1ccc(C(C)(C)c2ccc(-c3ccc(C(N)C(F)(F)F)cc3)cc2)cc1` (stereo not shown) [Example 14, 1-(4-(2-(4′-(1-amino-2,2,2-trifluoroethyl)-[1,1′-biphenyl]-4-yl)propan-2-yl)phenyl)-5-methyl-1H-1,2,4-triazole-3-carboxamide], the AC50 in the assay with FoxO3a came to 113 nM; with Akt, 180 nM.

For `Cc1nc(C(N)=O)nn1-c1ccc(C(C)(C)c2ccc(-c3ccc(CN4CCOCC4)cc3)cc2)cc1` [Example 13-12], the AC50 was determined as 64 nM with FoxO3a and 261 nM in the assay with Akt.

Take `Cc1nc(C(N)=O)nn1-c1ccc(C(C)(C)c2ccc(-c3ccsc3)cc2)cc1` [Example 13-16]: the AC50 in the assay with FoxO3a came to 377 nM; in the assay on Akt it was 926 nM.

For `Cc1nc(C(N)=O)nn1-c1ccc(C(C)(C)c2ccc(-c3ccc(N4CCOCC4)nc3)cc2)cc1` [Example 13-15], the results for the AC50 in the assay with FoxO3a and in the assay with Akt were 114 nM and 493 nM, respectively.

Regarding `Cc1cc(C(N)=O)nn1-c1ccc(Cc2ccc(-c3ccc(CNC4COC4)cc3)cc2)cc1` [Example 16-4], the AC50 in the assay on FoxO3a came out at 41 nM; with Akt, 120 nM.

As to `Cc1nc(C(N)=O)nn1-c1ccc(Cc2ccc(-c3ccc(C(C)(C)O)nc3)cc2)cc1` [Example 46, 1-(4-(4-(6-(2-hydroxypropan-2-yl)pyridin-3-yl)benzyl)phenyl)-5-methyl-1H-1,2,4-triazole-3-carboxamide], the AC50 in the assay with FoxO3a stood at 234 nM; with Akt, 1160 nM.

As for `Cc1nc(C(N)=O)nn1-c1ccc(Cc2ccc(-c3ccc(CN4CCCC(F)(F)C4)cc3)cc2)cc1` [Example 38-9], the AC50 with FoxO3a was 13 nM; in the assay on Akt, 11 nM.

Turning to `Cc1cc(C(N)=O)nn1-c1ccc(C(C)(C)c2ccc(-c3ccc(C4(CN)COC4)cc3)cc2)cc1` [Example 11, 1-(4-(2-(4′-(3-(aminomethyl)oxetan-3-yl)-[1,1′-biphenyl]-4-yl)propan-2-yl)phenyl)-5-methyl-1H-pyrazole-3-carboxamide], the AC50 in the assay on FoxO3a is 607 nM; in the assay on Akt it was 1190 nM.

On to `Cc1nc(C(N)=O)nn1-c1ccc(Cc2ccc(-c3ccc(S(=O)(=O)NCC(C)(C)O)cn3)cc2)cc1` [Example 52, 1-(4-(4-(5-(N-(2-hydroxy-2-methylpropyl)sulfamoyl)pyridin-2-yl)benzyl)phenyl)-5-methyl-1H-1,2,4-triazole-3-carboxamide], for which the figures for the AC50 in the assay on FoxO3a and in the assay with Akt were 106 nM and 749 nM, respectively.

On to `Cc1cc(C(N)=O)nn1-c1ccc(Cc2ccc(-c3ccc([C@@H]4CCCN4C)cc3)cc2)cc1` [Example 5-8, (S)-5-methyl-1-(4-((4′-(1-methylpyrrolidin-2-yl)-[1,1′-biphenyl]-4-yl)methyl)phenyl)-1H-pyrazole-3-carboxamide], for which the AC50 in the assay with FoxO3a was determined as 76 nM; in the assay on Akt, 145 nM.

Turning to `Cc1nc(C(N)=O)nn1-c1ccc(Cc2ccc(-c3ccc(CN4CCN(C)CC4)cc3)cc2)cc1` [Example 15-1, 5-methyl-1-(4-((4′-((4-methylpiperazin-1-yl)methyl)-[1,1′-biphenyl]-4-yl)methyl)phenyl)-1H-1,2,4-triazole-3-carboxamide], the AC50 with FoxO3a was 69 nM; in the assay with Akt, 166 nM.

For `Cc1cc(C(N)=O)nn1-c1ccc(Cc2ccc(-c3ccc(S(=O)(=O)CCO)cc3)cc2)cc1` [Example 17, 1-(4-((4′-((2-hydroxyethyl)sulfonyl)-[1,1′-biphenyl]-4-yl)methyl)phenyl)-5-methyl-1H-pyrazole-3-carboxamide], the values for the AC50 with FoxO3a and in the assay with Akt were 29 nM and 101 nM, respectively.

Consider `Cc1nc(C(N)=O)nn1-c1ccc(Cc2ccc(-c3ccc(CN4CCS(=O)(=O)CC4)cc3)cc2)cc1` [Example 39-32], for which the AC50 in the assay with FoxO3a is 48 nM; in the assay with Akt, 85 nM.

For `Cc1nc(C(N)=O)nn1-c1ccc(Cc2ccc(-c3ccc(C(=O)N4CCN[C@@H](C)C4)cc3)cc2)cc1` [Example 29, (S)-5-methyl-1-(4-((4′-(3-methylpiperazine-1-carbonyl)-[1,1′-biphenyl]-4-yl)methyl)phenyl)-1H-1,2,4-triazole-3-carboxamide], the values for the AC50 with FoxO3a and in the assay on Akt were 138 nM and 486 nM, respectively.

As to `Cc1cc(C(N)=O)nn1-c1ccc(Cc2ccc(-c3ccc(C(C)(C)O)cn3)cc2)cc1` [Example 19, 1-(4-(4-(5-(2-hydroxypropan-2-yl)pyridin-2-yl)benzyl)phenyl)-5-methyl-1H-pyrazole-3-carboxamide], the AC50 in the assay with FoxO3a amounted to 71 nM; in the assay with Akt, 209 nM.

Turning to `Cc1nc(C(N)=O)nn1-c1ccc(C(C)(C)c2ccc(-c3cnn(C)c3)cc2)cc1` [Example 13-8], the figures for the AC50 in the assay with FoxO3a and with Akt were 664 nM and 1750 nM, respectively.

Regarding `Cc1cc(C(N)=O)nn1-c1ccc(C(C)(C)c2ccc(C3=CCC(O)CC3)cc2)cc1` (stereo not shown) [Example 9, 1-(4-(2-(4′-hydroxy-2′,3′,4′,5′-tetrahydro-[1,1′-biphenyl]-4-yl)propan-2-yl)phenyl)-5-methyl-1H-pyrazole-3-carboxamide], the AC50 was determined as 253 nM in the assay on FoxO3a and 532 nM in the assay on Akt.

Regarding `Cc1cc(C(N)=O)nn1-c1ccc(Cc2ccc(-c3ccc(C4(O)COC4)nc3)cc2)cc1` [Example 22, 1-(4-(4-(6-(3-hydroxyoxetan-3-yl)pyridin-3-yl)benzyl)phenyl)-5-methyl-1H-pyrazole-3-carboxamide], the AC50 in the assay on FoxO3a came to 42 nM; with Akt, 187 nM.

As to `Cc1nnc(-c2ccc(-c3ccc(C(C)(C)c4ccc(-n5nc(C(N)=O)cc5C)cc4)cc3)cc2)o1` [Example 6-6, 5-methyl-1-(4-(2-(4′-(5-methyl-1,3,4-oxadiazol-2-yl)-[1,1′-biphenyl]-4-yl)propan-2-yl)phenyl)-1H-pyrazole-3-carboxamide], the AC50 in the assay on FoxO3a was 283 nM; in the assay on Akt, 842 nM.

For `Cc1nc(C(N)=O)nn1-c1ccc(C(C)(C)c2ccc(-c3ccc(N4CCCC4)nc3)cc2)cc1` [Example 13-14], the results for the AC50 with FoxO3a and in the assay on Akt were 386 nM and 1170 nM, respectively.

Take `Cc1nc(C(N)=O)nn1-c1ccc(Cc2ccc(-c3ccc(C(C)(C)NCC(C)(C)O)cc3)cc2)cc1` [Example 64, 1-(4-((4′-(2-((2-hydroxy-2-methylpropyl)amino)propan-2-yl)-[1,1′-biphenyl]-4-yl)methyl)phenyl)-5-methyl-1H-1,2,4-triazole-3-carboxamide]: the AC50 in the assay on FoxO3a was found to be 62 nM.

For the molecule `Cc1nc(C(N)=O)nn1-c1ccc(Cc2ccc(-c3ccc(CN4CCC(F)(F)CC4)cc3)cc2)cc1` [Example 39-20], the AC50 in the assay with FoxO3a was found to be 140 nM.

With `Cc1nc(C(N)=O)nn1-c1ccc(Cc2ccc(-c3ccc(O[C@H]4CCN(C)C4)cc3)cc2)cc1` [Example 62, (S)-5-methyl-1-(4-((4′-((1-methylpyrrolidin-3-yl)oxy)-[1,1′-biphenyl]-4-yl)methyl)phenyl)-1H-1,2,4-triazole-3-carboxamide], in the assay on FoxO3a, the AC50 is 20 nM.

In the case of `Cc1cc(C(N)=O)nn1-c1ccc(Cc2ccc(-c3ccnc(CO)c3)cc2)cc1` [Example 61, 1-(4-(4-(2-(hydroxymethyl)pyridin-4-yl)benzyl)phenyl)-5-methyl-1H-pyrazole-3-carboxamide], the AC50 in the assay on FoxO3a is 187 nM.

(Values after US10633350B2, “Diphenyl derivatives and uses thereof” (NOVARTIS AG, priority 2017, dated 2020).)
